Laboratory results taken from patent US20150086557A1, “NOVEL INTEGRIN alpha9 beta1 LIGAND AND USES THEREOF” (OSAKA UNIVERSITY, priority 2012, published 2015).

Tests used:
integrin α9β1 = biological target: T1, integrin α9β1 (Homo sapiens, UniProt P05556+Q13797); assay: Integrin α9β1-pol-C binding inhibition assay with synthetic peptides; conditions: integrin α9β1 10 nM, pol-C 10 nM, 1 mM MnCl2, 10% DMSO, FIG. 15
T1 construct: A cDNA encoding the extracellular region of human integrin α9; An expression vector for the extracellular region of integrin β1; ACID coiled-coil (Velcro) peptide; FLAG; BASE coiled-coil (Velcro) peptide; made in house; host or cells: FreeStyle 293 Expression System (293-F cells)
Method: An integrin binding assay was performed as described in the above-mentioned publication Matrix Biol. 25, […], (2006). In some experiments, integrins were preincubated with synthetic peptides at various concentrations to evaluate the inhibitory activities of the synthetic peptides. The apparent dissociation constants were determined as described in Nishiuchi, R., Murayama, O., Fujiwara, H., Gu, J., Kawakami. T., Aimoto, S., Wada, Y., and Sekiguchi, K. (2003) J. Biochem, 134, 497-504.
To further corroborate the role of EDDMMEVPY as the integrin α9β1 recognition sequence, an integrin α9β1-pol-C binding inhibition assay was performed using synthetic peptides consisting of the EDDMMEVPY sequence or a part of the sequence, Integrin α9β1 (10 nM) was incubated on microtiter plates coated with pol-C (10 nM) in the presence of 1 mM MnCl2 and various concentrations of the synthetic peptides. To prevent precipitation of the peptides, the assay was performed in the presence of 10% DMSO. Based on the amount of integrin α9β1 bound to pol-C set as 100%, the relative binding amount was calculated.

hematopoietic stem cells [1] = assay: FACS analysis of differentiation of hematopoietic stem cells on coated wells; assay type: cell-based, mouse; conditions: day 3 of culture on coated well, FIG. 19
Method: (§1) Bone marrow cells were flushed out from the femurs and tibias of three mice of 6 to 7 weeks of age (C57BL/6J) and dissociated with a 22G needle. The cells were reacted with a biotin-labeled anti-lineage antibody for 30 minutes and subsequently with an anti-blotin antibody-conjugated magnetic beads, and lineage-positive cells were removed by automated magnetic cell sorter autoMACS (Miltenyi Biotec). After staining with PE-CD3, PE-Mac1, PE-Gr1, PE-Ter119, PE-B220, FTTC-Sca1 and APC-c-Kit, a lineage(−) Sca1(+) c-Kit (high) cell fraction was sorted out using FACSAria and used for the experiments described below.
(§2) The above-prepared cells were plated on a 48-well plate coated with a recombinant polydom protein or fibronectin. The same type of plate without coating was used as a control. The medium used was RPMI containing 10% fetal calf serum, thrombopoietin (30 ng/ml) and flt3 ligand (100 ng/ml). For the examination of cell proliferation, the cells were plated in duplicate wells for each coating at 1000 cells/well and started to be cultured, and the cell number was counted at the start of culture, and on day 2 and day 3. The remaining cells were divided into three aliquots, plated in wells for each coating, and subjected to FACS analysis on day 3 after the start of culture. For the FACS analysis, staining with an antibody cocktail containing PE-CD3, PE-Mac1, PE-Gr1, PE-Ter119, PE-B220, FITC-Sca1 and APC-c-Kit was performed and FACSCont was used.

cardiac stem cells [2] = assay: Colony forming ability of GFP label-retaining cells (cardiac stem cells); assay type: cell-based, mouse; conditions: 100 nM coating, 1×10^4 cells/well, 2 weeks, FIG. 26
Source text: (§3) Tissue stem cells are known to generally have a very prolonged, cell cycle and thus allow labeling compounds incorporated into DNA and the cell interior to remain stable for a long period of time without decay along with cell division, This nature can be advantageously used to identify and separate tissue stem cells by short-term labeling or cells with a nucleotide analog such as bromodeoxyuridine (BrdU) or a fusion protein of green fluorescent protein (hereinafter referred to as “GFP”) and a nucleoprotein, histone, followed by selection of cells retaining the label for a long period of time (label-retaining cells). In this experiment, with the use of a tetracycline-inducible expression system in combination with the ROSA26 promoter, a fusion protein of GFP and histone H2B (H2B-GFP) was expressed in the heart of a mouse for 2 weeks starting 1 week before birth, and 6 weeks later, cardiac stem cells were separated as GFP label-retaining cells from the heart.
To explore whether cardiac stem cells proliferate on a polydom-coated plate, colony formation was measured, as an indicator of proliferation. A Falcon 6-well plate was coated with 800 μl/well of 100 nM polydom or fibronectin at 4° C. overnight. GFP label-retaining cells were collected by FACSAria and suspended in IMDM containing 10% fetal calf serum. […] After drying, the number of colonies was counted under a microscope.

hematopoietic stem cells [3] = assay: Proliferation of hematopoietic stem cells on coated plates; assay type: cell-based, mouse
Method: as §1, §2
The above-prepared cells were divided into three groups and plated on 48-well plates at 5000 cells/well. The medium used was RPMI containing 10% fetal calf serum, thrombopoietin (30 ng/ml) and flt3 ligand (100 ng/ml). For an EDDMMEVPY peptide treatment group, 2 μl of the peptide was added to each well at the final concentration of 50 μM, and for the other two groups, 2 μl of PBS was added to each well. Then, the culture was performed at […] for 2 hours. Subsequently, the cells were transferred to 48-well plates coated with a recombinant polydom protein or fibronectin. The cells cultured in the presence of the peptide were transferred to the recombinant polydom protein-coated plate, and the cells in one of the other two groups were transferred to the recombinant polydom protein-coated plate, and the cells in the remaining group were transferred to the fibronectin-coated plate. The culture was continued for 3 days and the cell numbers were counted on day 2, day 3 and […].

cardiac stem cells [4] = assay: Cell adhesion assay using GFP label-retaining cells (cardiac stem cells); assay type: cell-based, mouse; conditions: 100 nM coating, 12 hours, serum-free IMDM, FIG. 25
Source text: as §3
To explore whether polydom serves as a scaffold for integrin α9β1-expressing cardiac stem cells, cardiac stem cells were separated as GFP label-retaining cells and subjected to a cell adhesion assay. A 96-well immuno plate (Nunc Maxisorp) was coated with 50 μl/well of 100 nM polydom or fibronectin at 4° C. overnight, GFP label-retaining cells were collected by FACSAria and suspended at 1×10^6 cells/ml in serum-free Iscove's Modified Dulbecco Medium (hereinafter referred to as “IMDM”). The cell suspension was plated at 100 μl/well and cultured in a 5% CO2 incubator at 37° C. for 12 hours. After three washes with PBS, the cells were fixed with 100 μl/well of 3.7% formalin for 15 minutes. Then, the cells were incubated with 0.5% toluidine blue (150 μl/well) for 10 minutes and washed with MilliQ water. After drying, the number of attached cells was counted under a microscope.

[5] = biological target: integrin α9β1 on RD cells (human rhabdomyosarcoma cells) (human) (UniProt Q13797); assay: cell-based or functional assay
Sequence of integrin α9β1 on RD cells (human rhabdomyosarcoma cells) (human) (Q13797 30-1035, chain 1 of 2): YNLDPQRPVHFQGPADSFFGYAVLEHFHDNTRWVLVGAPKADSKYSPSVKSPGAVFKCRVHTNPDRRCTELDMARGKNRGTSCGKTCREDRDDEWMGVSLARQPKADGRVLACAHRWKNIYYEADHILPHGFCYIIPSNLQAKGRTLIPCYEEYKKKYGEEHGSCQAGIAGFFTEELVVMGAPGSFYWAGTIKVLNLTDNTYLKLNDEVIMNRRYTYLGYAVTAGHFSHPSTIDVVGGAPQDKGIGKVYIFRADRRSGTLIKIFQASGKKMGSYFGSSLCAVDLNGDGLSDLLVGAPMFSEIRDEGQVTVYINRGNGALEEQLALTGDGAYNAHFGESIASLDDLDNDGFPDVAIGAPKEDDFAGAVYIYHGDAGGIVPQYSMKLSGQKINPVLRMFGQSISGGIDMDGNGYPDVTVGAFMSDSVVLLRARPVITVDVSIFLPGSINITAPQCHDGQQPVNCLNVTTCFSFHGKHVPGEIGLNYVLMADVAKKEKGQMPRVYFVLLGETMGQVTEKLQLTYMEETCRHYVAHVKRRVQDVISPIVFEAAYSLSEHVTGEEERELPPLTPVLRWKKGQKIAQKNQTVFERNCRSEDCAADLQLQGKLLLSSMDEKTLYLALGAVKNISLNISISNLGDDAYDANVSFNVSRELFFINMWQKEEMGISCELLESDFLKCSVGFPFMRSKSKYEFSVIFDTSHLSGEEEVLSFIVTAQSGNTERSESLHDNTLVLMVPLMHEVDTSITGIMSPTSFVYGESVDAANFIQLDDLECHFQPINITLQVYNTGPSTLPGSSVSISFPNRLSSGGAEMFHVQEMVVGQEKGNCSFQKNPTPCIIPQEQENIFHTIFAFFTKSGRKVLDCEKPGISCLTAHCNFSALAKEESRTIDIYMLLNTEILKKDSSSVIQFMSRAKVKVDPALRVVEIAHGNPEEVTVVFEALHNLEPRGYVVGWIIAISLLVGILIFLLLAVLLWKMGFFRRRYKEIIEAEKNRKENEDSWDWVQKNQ
Sequence of integrin α9β1 on RD cells (human rhabdomyosarcoma cells) (human) (P05556 21-798, chain 2 of 2, further chain): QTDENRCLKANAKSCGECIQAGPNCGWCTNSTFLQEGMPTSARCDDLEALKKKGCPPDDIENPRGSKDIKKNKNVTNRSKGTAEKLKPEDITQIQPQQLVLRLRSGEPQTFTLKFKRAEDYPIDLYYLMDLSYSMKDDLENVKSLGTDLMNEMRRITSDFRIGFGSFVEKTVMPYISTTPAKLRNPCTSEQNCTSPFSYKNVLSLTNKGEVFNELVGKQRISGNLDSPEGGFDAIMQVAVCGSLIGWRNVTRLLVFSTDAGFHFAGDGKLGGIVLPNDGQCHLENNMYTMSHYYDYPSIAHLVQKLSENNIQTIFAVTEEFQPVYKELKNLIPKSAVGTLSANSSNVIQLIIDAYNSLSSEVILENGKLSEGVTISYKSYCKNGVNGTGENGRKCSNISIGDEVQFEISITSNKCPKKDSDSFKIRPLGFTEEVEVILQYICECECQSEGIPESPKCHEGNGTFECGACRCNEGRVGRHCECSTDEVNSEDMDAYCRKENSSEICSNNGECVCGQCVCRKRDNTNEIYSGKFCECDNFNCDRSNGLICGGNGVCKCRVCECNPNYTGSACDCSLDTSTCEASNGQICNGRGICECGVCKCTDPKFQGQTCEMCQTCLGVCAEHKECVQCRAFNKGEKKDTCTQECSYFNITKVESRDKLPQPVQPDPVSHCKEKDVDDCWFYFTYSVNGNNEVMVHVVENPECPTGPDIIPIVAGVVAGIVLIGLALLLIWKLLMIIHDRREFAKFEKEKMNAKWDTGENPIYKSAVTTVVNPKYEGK

T1 sequence (Q13797 30-981 limits assumed): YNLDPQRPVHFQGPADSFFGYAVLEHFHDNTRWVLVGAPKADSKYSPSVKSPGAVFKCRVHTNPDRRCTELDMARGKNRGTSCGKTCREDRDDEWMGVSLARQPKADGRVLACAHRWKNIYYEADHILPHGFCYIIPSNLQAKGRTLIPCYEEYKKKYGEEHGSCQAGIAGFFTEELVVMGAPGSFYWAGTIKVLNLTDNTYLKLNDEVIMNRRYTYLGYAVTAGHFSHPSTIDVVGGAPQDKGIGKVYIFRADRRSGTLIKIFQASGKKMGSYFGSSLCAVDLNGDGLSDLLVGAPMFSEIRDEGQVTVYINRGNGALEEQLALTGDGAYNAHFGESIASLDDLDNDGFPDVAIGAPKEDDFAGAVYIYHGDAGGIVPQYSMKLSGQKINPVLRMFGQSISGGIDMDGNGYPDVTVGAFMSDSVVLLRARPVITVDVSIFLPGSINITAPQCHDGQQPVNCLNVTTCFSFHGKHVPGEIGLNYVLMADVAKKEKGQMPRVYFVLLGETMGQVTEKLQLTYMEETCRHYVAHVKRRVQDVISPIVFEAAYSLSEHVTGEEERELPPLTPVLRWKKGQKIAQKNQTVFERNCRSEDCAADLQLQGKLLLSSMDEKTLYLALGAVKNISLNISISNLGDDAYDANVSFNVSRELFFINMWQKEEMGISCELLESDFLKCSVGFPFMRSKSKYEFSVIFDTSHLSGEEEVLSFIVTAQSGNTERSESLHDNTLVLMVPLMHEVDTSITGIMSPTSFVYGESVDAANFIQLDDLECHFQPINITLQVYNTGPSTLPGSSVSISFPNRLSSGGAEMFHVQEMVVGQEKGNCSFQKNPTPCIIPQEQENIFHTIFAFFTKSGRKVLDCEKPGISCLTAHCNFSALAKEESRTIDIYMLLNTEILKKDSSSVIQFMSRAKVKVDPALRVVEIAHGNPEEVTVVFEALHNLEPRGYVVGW
T1 sequence (P05556 21-728 limits assumed): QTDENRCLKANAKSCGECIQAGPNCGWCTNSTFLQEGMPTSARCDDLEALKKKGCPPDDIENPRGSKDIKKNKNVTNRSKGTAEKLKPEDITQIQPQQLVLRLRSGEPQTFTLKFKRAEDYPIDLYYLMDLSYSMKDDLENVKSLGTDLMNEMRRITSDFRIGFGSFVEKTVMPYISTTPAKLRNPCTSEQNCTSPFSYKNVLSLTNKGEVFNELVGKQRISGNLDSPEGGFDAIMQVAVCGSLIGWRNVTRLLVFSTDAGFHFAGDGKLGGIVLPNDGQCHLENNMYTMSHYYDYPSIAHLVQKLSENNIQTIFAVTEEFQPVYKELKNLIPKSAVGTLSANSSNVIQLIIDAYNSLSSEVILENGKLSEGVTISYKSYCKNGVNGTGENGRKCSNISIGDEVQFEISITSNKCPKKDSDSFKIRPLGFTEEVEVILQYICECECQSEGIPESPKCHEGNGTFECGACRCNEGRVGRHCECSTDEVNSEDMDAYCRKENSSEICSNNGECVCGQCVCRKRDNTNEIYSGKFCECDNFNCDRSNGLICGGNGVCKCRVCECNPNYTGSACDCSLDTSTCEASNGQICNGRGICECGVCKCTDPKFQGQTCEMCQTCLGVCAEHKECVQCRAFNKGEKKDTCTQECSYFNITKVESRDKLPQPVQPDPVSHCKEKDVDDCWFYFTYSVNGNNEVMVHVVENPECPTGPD

For DMMEVPY, the “inhibitory potency toward binding of integrin α9β1 to pol-C” value (integrin α9β1) was “nearly as potent as EDDMMEVPY”.

TYSSPEDGIHE [reference compound] was tested, and the “inhibitory potency toward binding of integrin α9β1 to pol-C” value (integrin α9β1) was “barely inhibitory”.

For fibronectin [reference compound], the “expression of c-Kit on hematopoietic stem cells” value (hematopoietic stem cells [1]) was “increased expression of c-Kit”, the “colony forming activity (colony count relative to the number of cells plated)” value (cardiac stem cells [2]) was “about 0.4%” and the “proliferation of hematopoietic stem cells on coated wells” value (hematopoietic stem cells [3]; 1000 cells/well, counted to day 3, versus uncoated control, FIG. 18) was “proliferated as with the control”. The “proliferation of hematopoietic stem cells on coated plate after PBS pretreatment” value (hematopoietic stem cells [3]; 5000 cells/well, counted day 2 to day 4, FIG. 20) was “proliferated” and the “adhesion of cardiac stem cells to coated plate” value (cardiac stem cells [4]) was “a large number of the cells adhered”.

For “full-length polydom (recombinant mouse SVEP1) (from UniProt A2AVA0 18-3567) (ligand)”, the adhesion of RD cells to coated full-length polydom [5] was 3 µg/mL.
